Test results: publication PMC3914206

Tests used:
[1] = target: T1, panel of 442 kinases (Homo sapiens, UniProt P36888, N841I); type: binding; conditions: Compound Concentration 10 µM
T1 construct: purchased KINOMEscan
T1 sequence (P36888 27-993 N841I): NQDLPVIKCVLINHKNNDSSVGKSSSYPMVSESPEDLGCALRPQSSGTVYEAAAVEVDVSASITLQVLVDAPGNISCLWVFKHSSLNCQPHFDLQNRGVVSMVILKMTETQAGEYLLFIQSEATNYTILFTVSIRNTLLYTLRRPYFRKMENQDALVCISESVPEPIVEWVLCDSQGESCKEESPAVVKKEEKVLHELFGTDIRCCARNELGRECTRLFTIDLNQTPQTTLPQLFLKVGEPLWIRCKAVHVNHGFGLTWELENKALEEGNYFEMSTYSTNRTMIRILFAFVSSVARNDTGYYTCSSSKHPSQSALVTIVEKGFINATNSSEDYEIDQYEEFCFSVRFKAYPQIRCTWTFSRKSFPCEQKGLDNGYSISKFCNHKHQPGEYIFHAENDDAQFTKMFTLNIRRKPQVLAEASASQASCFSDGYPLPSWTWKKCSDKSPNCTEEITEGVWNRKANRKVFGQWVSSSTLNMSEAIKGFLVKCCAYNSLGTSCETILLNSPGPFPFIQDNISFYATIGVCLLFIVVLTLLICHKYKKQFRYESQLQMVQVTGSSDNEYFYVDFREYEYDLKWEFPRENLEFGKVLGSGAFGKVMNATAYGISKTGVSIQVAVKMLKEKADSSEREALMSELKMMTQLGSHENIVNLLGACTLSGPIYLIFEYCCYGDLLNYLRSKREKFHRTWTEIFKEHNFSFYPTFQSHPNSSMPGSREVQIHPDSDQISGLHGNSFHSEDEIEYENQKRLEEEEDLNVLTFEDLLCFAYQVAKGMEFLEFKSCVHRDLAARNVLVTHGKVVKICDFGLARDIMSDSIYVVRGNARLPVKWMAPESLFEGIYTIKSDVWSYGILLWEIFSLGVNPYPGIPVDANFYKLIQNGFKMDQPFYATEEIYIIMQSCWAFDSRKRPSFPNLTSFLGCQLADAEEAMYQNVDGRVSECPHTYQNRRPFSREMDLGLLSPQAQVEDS
Description: (§1) We assessed the selectivity of members of this scaffold using the KINOMEscan methodology across a near comprehensive panel of 442 kinases [[18,27]].

[2] = target: T2, panel of 442 kinases (Homo sapiens, UniProt Q9NWZ3); type: binding; conditions: Compound Concentration 10 µM
T2 construct: purchased KINOMEscan
T2 sequence (Q9NWZ3 1-460): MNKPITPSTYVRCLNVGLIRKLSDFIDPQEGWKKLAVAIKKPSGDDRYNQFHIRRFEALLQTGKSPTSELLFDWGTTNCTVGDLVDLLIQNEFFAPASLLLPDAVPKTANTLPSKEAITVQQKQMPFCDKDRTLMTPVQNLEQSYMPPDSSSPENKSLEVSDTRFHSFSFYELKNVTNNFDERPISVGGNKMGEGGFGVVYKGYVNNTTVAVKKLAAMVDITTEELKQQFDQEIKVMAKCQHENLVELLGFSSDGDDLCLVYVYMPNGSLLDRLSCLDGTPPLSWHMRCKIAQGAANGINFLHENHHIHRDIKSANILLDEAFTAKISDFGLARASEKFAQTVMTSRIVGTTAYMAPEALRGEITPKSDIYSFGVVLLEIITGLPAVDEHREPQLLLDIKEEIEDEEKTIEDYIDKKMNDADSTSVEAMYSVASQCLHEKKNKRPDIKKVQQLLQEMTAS
Description: as §1

Row | SMILES | KINOMEscan: FLT3(N841I) [1] | KINOMEscan: IRAK4 [2]
1 | COc1cc(C(=O)N2CCC(N3CCN(C)CC3)CC2)ccc1Nc1ncc2c(n1)N(C)c1ccccc1C(=O)N2C [15 (LRRK2-IN-1)] | 73 | 83
2 | COc1cc(C(=O)N2CCC(N3CCN(C)CC3)CC2)ccc1Nc1ncc2c(n1)N1CCc3cccc(c31)C(=O)N2C [Compound 24] | 55 | 
3 | COc1cc(C(=O)N2CCC(N3CCN(C)CC3)CC2)ccc1Nc1ncc2c(n1)N(C1CCCC1)c1ccccc1C(=O)N2C [Compound 25, 11-cyclopentyl-2-((2-methoxy-4-(4-(4-methylpiperazin-1-yl)piperidine-1-carbonyl)phenyl)amino)-5-methyl-5H-benzo[e]pyrimido[5,4-b][1,4]diazepin-6(11H)-one] | 90 | 100
4 | CCOc1cc(C(=O)N2CCC(N3CCN(C)CC3)CC2)ccc1Nc1ncc2c(n1)N(C1CCCC1)c1ccccc1C(=O)N2C [Compound 26] | 100 | 100
